Assay [1] addresses PI3Kα (p110/p85) kinase (wild type, "WT") (Homo sapiens, UniProt P42336). The experiment in a line: PI3Kα (p110/p85) kinase ADP-Glo Assay. The settings on record: 25 uM ATP. The assay is classed as biochemical. The procedure:
PI3Kα (p110/p85) kinase ADP-Glo Assay. Certain compounds disclosed herein were tested for inhibition of PI3Kα (p110/p85) kinase (wild type, “WT”) in assays based on the ADP-Glo™ Kinase Assay methodology. The assays were carried out in 384-well white plates in a reaction mixture containing PI3Kα (p110/p85) kinase, 25 µM ATP, 5.35 µg/mL PI(4,5)P2:PS Lipid Kinase Substrate and […] compound in buffer containing 50 mM HEPES pH7.5, 50 mM NaCl, 3 mM MgCl2, 0.0025% BSA and 2 mM DTT. PI3Kα (p110/p85) kinase was incubated with Lipid Kinase Substrate and compound for 30 minutes at room temperature and the reaction was initiated by the addition of ATP. After reaction at room temperature for 120 minutes, ADP-Glo™ reagents were added to terminate the kinase reaction and deplete the remaining ATP according to the manufacture's instruction (Promega Corporation). After incubation at room temperature for 1 hour, Kinase Detection Reagent (prepared by reconstituting the lyophilized Kinase Detection Substrate with Kinase Detection Buffer of the kit) was added to convert the ADP to ATP and to allow for the newly synthesized ATP to be measured using a luciferase/luciferin reaction. After incubation at room temperature for 0.5 hour, chemiluminescence signals were recorded on a PHERAstar FSX plate reader (BMG Labtech). The chemiluminescence generated in this assay correlates to the amount of ADP generated in the kinase assay, indicating kinase activity. […] The IC50 for each compound was derived from fitting the data to the four-parameter logistic equation by Dotmatics.
On the technique in general: ADP-Glo first removes unused ATP, then detects ADP through luciferase.

In assay [2] the test system is WT cell line SK-BR-3. The experiment in a line: Cell Proliferation Assay (CellTiter-Glo), SK-BR-3. The assay is classed as cell-based. Particulars: Homo sapiens, 72 h; SK-BR-3, 3 days treatment. The procedure: (§1) The SK-BR-3 (ATCC, HTB-30) cell line was obtained from the American Type Culture Collection. Cells were maintained in McCoy' 5A medium (Gibco, REF #16600108) supplemented with 10% Fetal Bovine Serum. Cultures were maintained in a humidified incubator at 37° C. under 5% CO2/95% air.
Cell Proliferation Assay. PI3Kα H1047R mutated cell line T-47D cells and WT cell line SK-BR-3 were seeded at a density of 3×10^3 cells per well in 96 well plate (Xinyou Biotechnology, 062096) in 95 μL of culture medium, overnight. Compounds dissolved in 10 mM stock solutions in DMSO were serially diluted 1:3 in DMSO to generate a 9-point dilution series and plated using an INTEGRA ASSIST Plus pipetting robot. A 20× intermediate compound dilution plate in RPMI1640 medium (200 M starting compound concentration in 2% DMSO) was then prepared. Five μL of intermediate serially diluted compounds were added to the cell plate to final concentrations ranging from […] to 1 nM in 0.1% DMSO. 0.1% DMSO alone was used to establish the maximum signal and medium without cells was for minimum signal. After 3 days treatment, equilibrated the plate and its contents at room temperature for approximately 30 minutes. Added 30 μL CellTiter-Glo® Reagent (Promega, REF #G7571) to each well. Then mixed contents for 5 min on plate shaker to induce cell lysis. Incubated at room temperature for 10 minutes to stabilize luminescent signal. The plates were read on PHERAstar FSX Microplate reader using standard luminescence settings.
Relative IC50 values were determined using luminescence units by calculating percent inhibition with respect to the in-plate “MIN” (medium only) and “MAX” (0.1% DMSO) controls. The data were analyzed using a 4-parameter nonlinear logistic equation (four-parameter logistic concentration-response curve): Y=bottom+[(top−bottom)/1+(X/IC50) slope] • where Y=% inhibition, X=concentration of inhibitor, bottom=minimum value of y attained by curve-fit, top=maximum value of y attained by curve-fit and slope=steepness of curve at the IC50.
A general note: In ATP-based viability assays light output follows the ATP content of the culture.

Assay [3] deals with WT cell line SK-BR-3. The experiment in a line: Phospho-AKT (Ser473) Inhibition Assay (HTRF), SK-BR-3. The assay is classed as cell-based. Particulars: Homo sapiens; SK-BR-3, 1 hour treatment; read-out: p-AKT Inhibition assay (S473) IC50 SK-BR-3. The procedure:
as §1
Phospho-AKT Inhibition Assay. HTRF Phospho-AKT (Ser473) detection kit (Cisbio, REF #64AKSPEH) was used in phosphor-AKT inhibition assay. For compound screening, PI3Kα H1047R mutated cell line T-47D and WT cell line SK-BR-3 cells were seeded at a density of 3×10^4 cells per well in 96 well plate (Costar, REF #3599) in 95 μL of assay medium (MEM medium (Gibco, REF #12561-056) with 1×NEAA (Gibco, REF #11140-050), 1 mM sodium pyruvate (Gibco, REF #11360-070), and 1 g/ml human insulin (Topscience, REF #T8221)), overnight. Compounds dissolved in 10 mM stock solutions in DMSO were serially diluted 1:3 in DMSO to generate an 11-point dilution series and plated using an INTEGRA ASSIST PLUS pipetting robot. A 20× intermediate compound dilution plate in RPMI1640 medium (200 M starting compound concentration in 2% DMSO) was then prepared. Five μL of intermediate serially diluted compounds were added to the cell plate to final concentrations ranging from […] to 0.1 nM in 0.1% DMSO. 0.1% DMSO alone was used to establish the maximum signal and GDC0077 at final concentration of 10 μM was used as a reference compound for minimum signal. After 1 hour treatment, removed medium and added 50 μL of supplemented lysis buffer (1×) immediately. Incubated for at least 30 minutes at room temperature under shaking. Transferred 16 μL of cell lysate from the 96-well cell-culture plate to a 384-white detection plate (PerkinElmer, Optiplate 384, 6007299). Added 4 μL of premixed antibody solutions prepared in the detection buffer. Incubated 4 hours at room temperature in dark. The plates were read on PHERAstar FSX Microplate reader (BMG LABTECH, Inc.) using standard HTRF settings.
Relative IC50 values were determined using luminescence units by calculating percent inhibition with respect to the in-plate “MIN” (GDC0077 reference control) and “MAX” (DMSO) controls. The data were analyzed using a 4-parameter nonlinear logistic equation (four-parameter logistic concentration-response curve): Y=bottom+[(top−bottom)/1+(X/IC50) slope] • where Y=% inhibition, X=concentration of inhibitor, bottom=minimum value of y attained by curve-fit, top=maximum value of y attained by curve-fit and slope=steepness of curve at the IC50.
For orientation: Time-resolved FRET reads energy transfer from a long-lived donor to a nearby acceptor.

The structures appear in SMILES notation.

Sequence of PI3Kα (p110/p85) kinase (wild type, "WT") (P42336 whole entry): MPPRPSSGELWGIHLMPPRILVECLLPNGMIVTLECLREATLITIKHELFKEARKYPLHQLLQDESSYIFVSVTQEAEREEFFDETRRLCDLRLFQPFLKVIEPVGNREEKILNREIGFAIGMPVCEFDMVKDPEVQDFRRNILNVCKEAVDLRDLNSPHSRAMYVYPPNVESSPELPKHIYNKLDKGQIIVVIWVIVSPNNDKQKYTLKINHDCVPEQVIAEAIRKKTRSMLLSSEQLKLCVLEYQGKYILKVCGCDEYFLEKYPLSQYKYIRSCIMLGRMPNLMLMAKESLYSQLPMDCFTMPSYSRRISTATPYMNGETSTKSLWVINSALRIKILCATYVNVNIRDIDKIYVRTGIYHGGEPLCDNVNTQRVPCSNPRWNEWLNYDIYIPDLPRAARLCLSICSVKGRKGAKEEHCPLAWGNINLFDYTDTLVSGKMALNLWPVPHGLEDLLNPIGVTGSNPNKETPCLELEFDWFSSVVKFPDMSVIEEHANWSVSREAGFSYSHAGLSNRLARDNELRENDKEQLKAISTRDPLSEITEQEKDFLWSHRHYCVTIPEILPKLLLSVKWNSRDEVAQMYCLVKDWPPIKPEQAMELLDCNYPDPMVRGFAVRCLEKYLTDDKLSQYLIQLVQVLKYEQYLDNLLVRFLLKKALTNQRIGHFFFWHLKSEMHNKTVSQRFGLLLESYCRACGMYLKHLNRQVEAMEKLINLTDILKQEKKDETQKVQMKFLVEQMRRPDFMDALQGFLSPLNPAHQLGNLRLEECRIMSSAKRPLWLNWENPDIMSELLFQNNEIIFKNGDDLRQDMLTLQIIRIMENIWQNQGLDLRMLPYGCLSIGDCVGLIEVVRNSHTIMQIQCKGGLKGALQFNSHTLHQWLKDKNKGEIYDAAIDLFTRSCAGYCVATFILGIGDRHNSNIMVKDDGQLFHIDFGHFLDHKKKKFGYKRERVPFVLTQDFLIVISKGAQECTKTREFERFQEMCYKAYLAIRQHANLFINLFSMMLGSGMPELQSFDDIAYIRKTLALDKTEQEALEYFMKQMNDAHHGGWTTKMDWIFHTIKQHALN
Sequence of PI3Kα (p110/p85) kinase (wild type, "WT") (P27986 whole entry partner): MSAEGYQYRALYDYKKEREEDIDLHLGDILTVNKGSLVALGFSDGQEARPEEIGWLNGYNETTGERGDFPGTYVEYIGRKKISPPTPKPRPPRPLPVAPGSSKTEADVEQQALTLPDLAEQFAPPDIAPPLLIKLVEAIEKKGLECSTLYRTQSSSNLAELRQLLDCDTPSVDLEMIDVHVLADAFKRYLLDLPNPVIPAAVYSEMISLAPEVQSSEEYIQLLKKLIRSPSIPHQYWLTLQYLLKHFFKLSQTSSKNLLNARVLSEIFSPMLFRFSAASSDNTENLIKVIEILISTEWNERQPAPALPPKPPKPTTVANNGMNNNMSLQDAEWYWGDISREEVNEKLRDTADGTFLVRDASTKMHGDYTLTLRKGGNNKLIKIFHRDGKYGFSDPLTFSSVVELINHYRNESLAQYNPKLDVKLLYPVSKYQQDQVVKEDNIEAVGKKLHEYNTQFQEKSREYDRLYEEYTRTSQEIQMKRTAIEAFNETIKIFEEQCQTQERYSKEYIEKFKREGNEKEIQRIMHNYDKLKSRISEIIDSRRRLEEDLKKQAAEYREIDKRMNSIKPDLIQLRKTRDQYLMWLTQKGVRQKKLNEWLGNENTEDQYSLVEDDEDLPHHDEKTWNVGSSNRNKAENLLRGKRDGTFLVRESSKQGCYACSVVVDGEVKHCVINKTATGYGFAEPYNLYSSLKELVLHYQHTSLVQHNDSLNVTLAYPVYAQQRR

As for `Cc1cc(C(C)Nc2ccccc2C(=O)O)c2cc(-c3ccccc3)n(C)c(=O)c2c1` (stereo not drawn) [Example 1, 2-((1-(2,7-dimethyl-1-oxo-3-phenyl-1,2-dihydroisoquinolin-5-yl)ethyl)amino)benzoic acid], the IC50 (commonly the point on the concentration scale where inhibition reaches its midpoint) is 2.77 µM in assay [1], > 10 µM in the assay with WT cell line SK-BR-3 [2] and 2.11 µM in the assay on WT cell line SK-BR-3 [3].
In the case of `Cc1cc(C(C)Nc2ccccc2C(=O)O)c2cc(-c3ccccc3C)n(C)c(=O)c2c1` (stereo not drawn) [Example 2, 2-((1-(2,7-dimethyl-1-oxo-3-(o-tolyl)-1,2-dihydroisoquinolin-5-yl)ethyl)amino)benzoic acid], the IC50 in assay [1] was 22.4 µM; in the assay on WT cell line SK-BR-3 [2], > 10 µM; in the assay on WT cell line SK-BR-3 [3], 2.85 µM.
Consider `Cc1cc(C(C)Nc2ccccc2C(=O)O)c2cc(-c3cccc(C#N)c3)n(C)c(=O)c2c1` (stereo not drawn) [Example 3, 2-((1-(3-(3-cyanophenyl)-2,7-dimethyl-1-oxo-1,2-dihydroisoquinolin-5-yl)ethyl)amino)benzoic acid], for which the figures for the IC50 (in assay [1]; in the assay with WT cell line SK-BR-3 [2]; in the assay on WT cell line SK-BR-3 [3]) were 9.85 µM, > 10 µM and 4.35 µM, respectively.
Turning to `Cc1cc(C(C)Nc2ccccc2C(=O)O)c2cc(-c3cccc(C(C)(C)C#N)c3)n(C)c(=O)c2c1` (stereo not drawn) [Example 5, 2-((1-(3-(3-(2-cyanopropan-2-yl)phenyl)-2,7-dimethyl-1-oxo-1,2-dihydroisoquinolin-5-yl)ethyl)amino)benzoic acid], the IC50 in assay [1] was 5.28 µM; in the assay with WT cell line SK-BR-3 [2], > 10 µM; with WT cell line SK-BR-3 [3], 4.62 µM.
For the compound `Cc1cc(C(C)Nc2ccccc2C(=O)O)c2cc(-c3ccccc3F)n(C)c(=O)c2c1` (stereo not drawn) [Example 6, 2-((1-(3-(2-fluorophenyl)-2,7-dimethyl-1-oxo-1,2-dihydroisoquinolin-5-yl)ethyl)amino)benzoic acid], the IC50 in assay [1] is 2.88 µM; in the assay on WT cell line SK-BR-3 [2], > 10 µM; in the assay with WT cell line SK-BR-3 [3], 3.21 µM.
In the case of `Cc1cc(C(C)Nc2ccccc2C(=O)O)c2cc(-c3cccc(F)c3)n(C)c(=O)c2c1` (stereo not drawn) [Example 7, 2-((1-(3-(3-fluorophenyl)-2,7-dimethyl-1-oxo-1,2-dihydroisoquinolin-5-yl)ethyl)amino)benzoic acid], the IC50 in assay [1] is 2.52 µM; in the assay on WT cell line SK-BR-3 [2] it was > 10 µM; in the assay with WT cell line SK-BR-3 [3], 1.86 µM.
For the compound `Cc1cc(C(C)Nc2ccccc2C(=O)O)c2cc(-c3ccc(F)cc3)n(C)c(=O)c2c1` (stereo not drawn) [Example 8, 2-((1-(3-(4-fluorophenyl)-2,7-dimethyl-1-oxo-1,2-dihydroisoquinolin-5-yl)ethyl)amino)benzoic acid], the IC50 in assay [1] was 5.96 µM; in the assay with WT cell line SK-BR-3 [2], > 10 µM; with WT cell line SK-BR-3 [3], 2.5 µM.
`Cc1cc(C(C)Nc2ccccc2C(=O)O)c2cc(-c3ccc(F)c(F)c3)n(C)c(=O)c2c1` (stereo not drawn) [Example 9, 2-((1-(3-(3,4-difluorophenyl)-2,7-dimethyl-1-oxo-1,2-dihydroisoquinolin-5-yl)ethyl)amino)benzoic acid]: the half-inhibitory concentration (IC50) in assay [1] is 2.71 µM; in the assay on WT cell line SK-BR-3 [2] it was > 10 µM; with WT cell line SK-BR-3 [3] it was 3.64 µM.
In the case of `Cc1cc(C(C)Nc2ccccc2C(=O)O)c2cc(-c3cc(F)cc(F)c3)n(C)c(=O)c2c1` (stereo not drawn) [Example 10, 2-((1-(3-(3,5-difluorophenyl)-2,7-dimethyl-1-oxo-1,2-dihydroisoquinolin-5-yl)ethyl)amino)benzoic acid], the results for the IC50 (in assay [1]; with WT cell line SK-BR-3 [2]; in the assay on WT cell line SK-BR-3 [3]) were 8.08 µM, > 10 µM and 2.73 µM, respectively.
`Cc1cc(C(C)Nc2ccccc2C(=O)O)c2cc(-c3ccc(F)cc3F)n(C)c(=O)c2c1` (stereo not drawn) [Example 11, 2-((1-(3-(2,4-difluorophenyl)-2,7-dimethyl-1-oxo-1,2-dihydroisoquinolin-5-yl)ethyl)amino)benzoic acid]: the IC50 was 21.1 µM in assay [1], > 10 µM with WT cell line SK-BR-3 [2] and > 10 µM with WT cell line SK-BR-3 [3].
Take `Cc1cc(C(C)Nc2ccccc2C(=O)O)c2cc(-c3cccc(F)c3F)n(C)c(=O)c2c1` (stereo not drawn) [Example 12, 2-((1-(3-(2,3-difluorophenyl)-2,7-dimethyl-1-oxo-1,2-dihydroisoquinolin-5-yl)ethyl)amino)benzoic acid]: the IC50 in assay [1] was 6.69 µM; with WT cell line SK-BR-3 [2], > 10 µM; with WT cell line SK-BR-3 [3], 2.16 µM.
With `COc1cccc(-c2cc3c(C(C)Nc4ccccc4C(=O)O)cc(C)cc3c(=O)n2C)c1` (stereo not drawn) [Example 13, 2-((1-(3-(3-methoxyphenyl)-2,7-dimethyl-1-oxo-1,2-dihydroisoquinolin-5-yl)ethyl)amino)benzoic acid], the IC50 is 5.82 µM in assay [1], > 10 µM with WT cell line SK-BR-3 [2] and 3.59 µM with WT cell line SK-BR-3 [3].
Regarding `COc1ccc(-c2cc3c(C(C)Nc4ccccc4C(=O)O)cc(C)cc3c(=O)n2C)cc1` (stereo not drawn) [Example 14, 2-((1-(3-(4-methoxyphenyl)-2,7-dimethyl-1-oxo-1,2-dihydroisoquinolin-5-yl)ethyl)amino)benzoic acid], the concentration for half-maximal inhibition (IC50) in assay [1] is 3.72 µM; in the assay with WT cell line SK-BR-3 [2], > 10 µM; with WT cell line SK-BR-3 [3], 2.06 µM.
On to `COc1ccc(-c2cc3c(C(C)Nc4ccccc4C(=O)O)cc(C)cc3c(=O)n2C)cn1` (stereo not drawn) [Example 15, 2-((1-(3-(6-methoxypyridin-3-yl)-2,7-dimethyl-1-oxo-1,2-dihydroisoquinolin-5-yl)ethyl)amino)benzoic acid], for which the figures for the IC50 (in assay [1]; with WT cell line SK-BR-3 [2]; in the assay on WT cell line SK-BR-3 [3]) were 6.86 µM, > 10 µM and 8.36 µM, respectively.
For the compound `Cc1cc(C(C)Nc2ccccc2C(=O)O)c2cc(-c3cnn(-c4ccc(C(N)=O)cn4)c3)n(C)c(=O)c2c1` (stereo not drawn) [Example 16, 2-((1-(3-(1-(5-carbamoylpyridin-2-yl)-1H-pyrazol-4-yl)-2,7-dimethyl-1-oxo-1,2-dihydroisoquinolin-5-yl)ethyl)amino)benzoic acid], the IC50 was 3.67 µM in assay [1], > 10 µM with WT cell line SK-BR-3 [2] and > 10 µM in the assay on WT cell line SK-BR-3 [3].

The record behind these values is US20260125346A1, “Isoquinolinone Derivatives and 4H-Quinolizinone Derivatives and Pharmaceutical Compositions Thereof for the Treatment of Disease” (BeOne Medicines I GmbH, priority 2023, published 2026).
